Patent publication US8975232B2, “Macrocyclic kinase inhibitors and uses thereof” (President and Fellows of Harvard College, priority 2010, dated 2015)
*1 amine or outer side, *2 acyl side, *3 side chain or, on linkers, in order; H or OH if unused. Where a SMILES comes first, the peptide text is derived from it. Bridges are numbered along the chain shown (N, C = ends). [ ]: non-standard residue; d: D form. The star is where a group is joined. Ala(E-styryl) = N[C@@H](C/C=C/c1ccccc1)C(=O)O; dBpa = N[C@H](Cc1ccc(C(=O)c2ccccc2)cc1)C(=O)O; Maleoyl = O=C(/C=C\C(=O)[*:2])[*:1]; NH(CH2CH2O)2CH2CH2NH2 = NCCOCCOCCN*; Cha = N[C@@H](CC1CCCCC1)C(=O)O; Dab = NCC[C@H](N)C(=O)O; Dap = NC[C@H](N)C(=O)O

Tests used:
[1] = biological target: p38α-MAPKAPK2 kinase cascade (P38α-MK2) (Homo sapiens, UniProt P49137+Q16539); assay: Z'-LYTE kinase cascade assay (Invitrogen SelectScreen); assay type: biochemical
Chain of p38α-MAPKAPK2 kinase cascade (P38α-MK2) (Q16539 whole entry): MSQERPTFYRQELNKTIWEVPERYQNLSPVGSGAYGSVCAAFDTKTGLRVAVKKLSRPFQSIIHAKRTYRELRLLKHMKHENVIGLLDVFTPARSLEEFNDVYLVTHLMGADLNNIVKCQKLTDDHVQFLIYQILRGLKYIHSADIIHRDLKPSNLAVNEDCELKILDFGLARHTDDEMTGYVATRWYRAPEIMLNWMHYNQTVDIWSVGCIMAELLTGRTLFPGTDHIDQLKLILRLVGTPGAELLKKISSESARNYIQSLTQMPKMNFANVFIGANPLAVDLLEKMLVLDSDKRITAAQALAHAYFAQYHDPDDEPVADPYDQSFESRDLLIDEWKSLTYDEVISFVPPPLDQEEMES
Chain of p38α-MAPKAPK2 kinase cascade (P38α-MK2) (P49137 whole entry): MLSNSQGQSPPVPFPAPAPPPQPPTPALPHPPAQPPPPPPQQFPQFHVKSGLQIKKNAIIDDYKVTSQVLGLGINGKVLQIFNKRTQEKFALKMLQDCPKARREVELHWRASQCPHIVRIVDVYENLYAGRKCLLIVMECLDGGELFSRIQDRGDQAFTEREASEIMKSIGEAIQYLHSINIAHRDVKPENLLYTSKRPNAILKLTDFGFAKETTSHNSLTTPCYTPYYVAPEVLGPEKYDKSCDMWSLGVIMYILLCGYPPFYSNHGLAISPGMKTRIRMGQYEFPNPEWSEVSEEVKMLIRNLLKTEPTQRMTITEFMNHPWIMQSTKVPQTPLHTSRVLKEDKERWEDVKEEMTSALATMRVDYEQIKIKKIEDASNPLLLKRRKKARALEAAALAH
Source text: (§1) Macrocycles A10-B1-C11-D5 and A10-B8-C11-D5 were enriched 2- to 6-fold upon selection for binding Akt3, MAPKAPK2, Pim1, and VEGFR2 (FIG. 6). These two macrocycles are structurally similar, sharing nitrophenylalanine (A10) and cyclohexylstatine (C11) building blocks as well as the same lysine scaffold (D5), and differ only at the B building block with either furylalanine (B1) or cyclohexylalanine (B8) (FIG. 6). For assay purposes, the macrocycles were synthesized with C-terminal PEG-diamine linkers to aid solubility, and then tested for the ability to inhibit Akt3, MAPKAPK2, Pim1 and VEGFR2.
(§2) Src IC50 determinations and single-point inhibition measurements were performed using Invitrogen's Z′-LYTE Tyr 02 assay kit according to the manufacturer's protocols. All kinase assays were performed at ATP concentrations near KM,ATP values, except where noted otherwise. Active human Src kinase was obtained from Millipore. For kinome profiling and IC50 determinations against non-Src kinases, compounds were submitted to Invitrogen's SelectScreen Kinase Profiling Service.

[2] = biological target: Pim1 (Homo sapiens, UniProt P11309); assay: Z'-LYTE kinase assay (Invitrogen SelectScreen); assay type: biochemical; details: Pim1
Chain of Pim1 (P11309 whole entry): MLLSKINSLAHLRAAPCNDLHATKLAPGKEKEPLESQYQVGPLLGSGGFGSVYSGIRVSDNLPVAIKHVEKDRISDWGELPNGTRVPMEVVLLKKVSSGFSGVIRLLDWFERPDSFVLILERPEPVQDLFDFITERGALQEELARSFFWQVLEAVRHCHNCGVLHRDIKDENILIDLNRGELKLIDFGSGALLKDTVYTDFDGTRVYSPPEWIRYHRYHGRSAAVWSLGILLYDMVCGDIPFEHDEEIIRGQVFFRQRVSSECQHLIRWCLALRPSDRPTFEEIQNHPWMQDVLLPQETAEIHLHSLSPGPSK
Source text: as §1, §2

[3] = biological target: Src kinase (Homo sapiens, UniProt P12931); assay: Z'-LYTE kinase assay (Invitrogen), Src; assay type: biochemical; design: full-length kinase in the Z-LYTE assay vs. kinase domain in the current study; purchased Millipore; details: for IC50: Z'-LYTE, ATP near KM; for Src kinase inhibition (in words): non-DNA-linked compound
Chain of Src kinase (P12931 whole entry, the tested form may be a part): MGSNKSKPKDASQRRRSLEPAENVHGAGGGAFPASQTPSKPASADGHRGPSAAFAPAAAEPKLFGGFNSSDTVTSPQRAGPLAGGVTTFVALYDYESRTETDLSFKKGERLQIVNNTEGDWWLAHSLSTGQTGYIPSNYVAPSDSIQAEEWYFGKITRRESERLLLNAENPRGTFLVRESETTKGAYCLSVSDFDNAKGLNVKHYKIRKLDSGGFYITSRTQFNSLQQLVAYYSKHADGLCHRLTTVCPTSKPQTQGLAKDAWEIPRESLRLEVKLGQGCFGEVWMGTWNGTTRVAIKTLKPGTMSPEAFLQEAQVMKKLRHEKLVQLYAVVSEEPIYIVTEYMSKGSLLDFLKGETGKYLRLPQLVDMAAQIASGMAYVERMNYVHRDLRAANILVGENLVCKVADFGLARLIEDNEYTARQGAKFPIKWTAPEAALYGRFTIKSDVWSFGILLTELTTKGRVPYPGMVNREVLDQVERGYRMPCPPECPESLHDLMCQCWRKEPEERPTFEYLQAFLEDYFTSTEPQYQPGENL
Procedure: Nine macrocycles enriched in the Src selection (FIG. 5) and synthesized as described above were assayed in vitro for the ability to inhibit Src kinase activity. Kinase activity was assayed in the presence of varying concentrations of macrocycle using the FRET-based Z′-LYTE assay (Invitrogen).
as §2

[4] = biological target: HCK (Homo sapiens, UniProt P08631); assay: Continuous spectrophotometric kinase activity assay; assay type: biochemical; design: Kinase domain constructs of human c-Abl (residues 229-512), chicken c-Src (residues 251-533 and residues 83-533), murine Lck (residues 227-509), and human Hck (residues 166-445); made in house; details: 300 μM Src optimal peptide
Chain of HCK (P08631 262-515 limits assumed): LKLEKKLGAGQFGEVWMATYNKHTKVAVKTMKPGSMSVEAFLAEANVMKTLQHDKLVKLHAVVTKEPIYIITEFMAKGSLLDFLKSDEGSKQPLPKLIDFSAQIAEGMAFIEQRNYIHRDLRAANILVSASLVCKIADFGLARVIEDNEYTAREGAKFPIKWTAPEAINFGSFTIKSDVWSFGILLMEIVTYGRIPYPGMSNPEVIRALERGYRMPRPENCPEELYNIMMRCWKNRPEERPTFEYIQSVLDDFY
Source text: (§3) Kinase domain constructs of human c-Abl (residues 229-512), chicken c-Src (residues 251-533 and residues 83-533), murine Lck (residues 227-509), and human Hck (residues 166-445) were expressed as previously described (Seeliger, Young et al. 2005; Seeliger, Nagar et al. 2007; the entire contents of each of which are incorporated by reference herein). Mutations were introduced into chicken c-Src (residues 251-533) (T338I, C277Q, L297M) by site-directed mutagenesis and verified by DNA sequencing.
(§4) In vitro kinase inhibition assays were performed using either a continuous spectrophotometric assay or a FRET-based endpoint assay.
(§5) The original characterization of kinase inhibition was performed with a commercial kinase assay that relies on a fluorescently labeled peptide kinase substrate (Z-LYTE, Invitrogen). For further characterization, a continuous spectrophotometric kinase activity assay was employed that is easily adapted to different substrate peptides as well as a wider range of peptide and ATP concentrations.

[5] = biological target: T1, full-length chicken c-Src (Gallus gallus, UniProt P00523); assay: Z'-LYTE kinase assay (Tyr 02 substrate peptide), full-length c-Src; assay type: biochemical
T1 construct: assayed against full-length chicken c-Src
Procedure: For the FRET-based endpoint assay, kinase assays were performed using Invitrogen's Z′-LYTE kinase assay using the Tyr 02 substrate peptide (based upon the optimal Abl substrate peptide […]) according to the manufacturer's instructions. Assays were performed at near KM ATP concentrations for full-length c-Src and full-length c-Src T338I-50 μM and 7 μM, respectively.
Derivatives of MC4 were synthesized by Fmoc solid-phase peptide synthesis and assayed against full-length chicken c-Src using Invitrogen's Z′-LYTE kinase assay. […] Holding the amino acids at the A and C positions constant, variants of MC4 containing phenylalanine, cyclohexylalanine, pentafluorophenylalanine, and N-methyl-phenylalanine at the B position in place of furylalanine were synthesized and assayed.

[6] = biological target: T2, Abl (Homo sapiens, UniProt P00519); assay: Continuous spectrophotometric kinase activity assay; assay type: biochemical
T2 construct: human c-Abl (residues 229-512); made in house
T2 sequence (P00519 229-512): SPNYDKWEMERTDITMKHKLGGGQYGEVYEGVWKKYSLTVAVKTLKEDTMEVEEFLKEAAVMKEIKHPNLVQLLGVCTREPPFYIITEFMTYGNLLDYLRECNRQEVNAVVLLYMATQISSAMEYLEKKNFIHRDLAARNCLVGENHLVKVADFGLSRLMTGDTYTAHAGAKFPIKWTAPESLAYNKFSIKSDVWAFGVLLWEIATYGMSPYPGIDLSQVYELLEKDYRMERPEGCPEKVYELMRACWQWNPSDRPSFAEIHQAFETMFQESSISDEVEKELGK
Source text: as §3, §4, §5

[7] = biological target: T3, Src kinase domain (chicken c-Src residues 251-533) (Gallus gallus, UniProt P00523); assay: as above; assay type: biochemical; details: Src kinase domain
T3 construct: chicken c-Src (residues 251-533 and residues 83-533); made in house
Source text: as §3, §4, §5

[8] = biological target: T4, Lck (Mus musculus, UniProt P06240); assay: as above; assay type: biochemical, murine
T4 construct: murine Lck (residues 227-509); made in house
T4 sequence (P06240 227-509): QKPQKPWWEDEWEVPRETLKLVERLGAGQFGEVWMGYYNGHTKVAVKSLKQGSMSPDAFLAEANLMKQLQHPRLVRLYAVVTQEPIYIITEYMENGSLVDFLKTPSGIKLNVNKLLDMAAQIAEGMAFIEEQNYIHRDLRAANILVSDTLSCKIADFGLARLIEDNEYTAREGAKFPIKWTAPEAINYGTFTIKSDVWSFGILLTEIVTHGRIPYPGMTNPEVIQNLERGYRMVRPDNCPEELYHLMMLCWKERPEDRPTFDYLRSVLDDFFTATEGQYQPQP
Source text: as §3, §4, §5

[9] = 5 μM ATP, 100 μM Src optimal peptide
[10] = 5 μM ATP, 300 μM Src optimal peptide
[11] = 250 μM ATP, 300 μM Src optimal peptide

For `NCCOCCOCCNC(=O)[C@@H]1CNC(=O)/C=C\C(=O)N[C@@H](C/C=C/c2ccccc2)C(=O)N[C@@H](CC2CCCCC2)C(=O)N[C@H](Cc2ccc(C(=O)c3ccccc3)cc2)C(=O)N1` [cis-A12-B8-C10-D4] ([Ala(E-styryl)][Cha][dBpa][Dap]-{NH(CH2CH2O)2CH2CH2NH2}; linker N-4 via Maleoyl), the IC50 [1] was 20 µM and the IC50 [2] was 100 µM.

`NC(=O)[C@@H]1CCNC(=O)[C@H](Cc2ccc([N+](=O)[O-])cc2)NC(=O)[C@H](Cc2ccco2)NC(=O)[C@H](CC2CC2)NC(=O)/C=C/C(=O)N1` [trans-A10-B1-C5-D7] was tested, and the IC50 [3] was 1.5 µM.

With `NC(=O)[C@@H]1CCCCNC(=O)[C@H](CCCNC(=O)c2cnccn2)NC(=O)[C@H](Cc2ccco2)NC(=O)[C@H](CC2CC2)NC(=O)/C=C/C(=O)N1` [trans-A11-B1-C5-D5] the IC50 [3] was > 100 µM.

`NC(=O)[C@@H]1CCNC(=O)[C@H](CCCNC(=O)c2cnccn2)NC(=O)[C@H](Cc2ccco2)NC(=O)[C@H](C/C=C/c2ccccc2)NC(=O)/C=C/C(=O)N1` [trans-A11-B1-C10-D7] showed an IC50 [3] of 21 µM.

With `CS(=O)(=O)CC[C@@H]1NC(=O)[C@H](Cc2ccco2)NC(=O)[C@H](CC2CC2)NC(=O)/C=C/C(=O)N[C@H](C(N)=O)CCNC1=O` [trans-A9-B1-C5-D7] the IC50 [3] was > 100 µM.

`C=CC[C@@H]1NC(=O)/C=C/C(=O)N[C@H](C(N)=O)CCNC(=O)[C@H](CCCNC(=O)c2cnccn2)NC(=O)[C@H](Cc2ccco2)NC1=O` [trans-A11-B1-C3-D7] gave an IC50 [3] of 48 µM.

Work on `NC(=O)[C@@H]1CCCCNC(=O)[C@H](CCCNC(=O)c2cnccn2)NC(=O)[C@H](Cc2ccco2)NC(=O)[C@H](CC2CC2)NC(=O)/C=C\C(=O)N1` [cis-A11-B1-C5-D5] yielded an IC50 [3] of 85 µM.

With `NC(=O)[C@@H]1CCCNC(=O)[C@H](Cc2ccccc2)NC(=O)[C@H](Cc2ccco2)NC(=O)[C@H](CC2CC2)NC(=O)/C=C/C(=O)N1` [trans-Phe-B1-C5-D6] the “Src kinase inhibition (in words)” value [3] was “abolished Src inhibition”.

For `NC(=O)[C@@H]1CCNC(=O)[C@H](CCCNC(=O)c2cnccn2)NC(=O)[C@H](CC2CCCCC2)NC(=O)[C@H](CC2CC2)NC(=O)/C=C\C(=O)N1` [cis-A11-B8-C5-D7], the IC50 [3] was 36 µM.

For `NC(=O)[C@@H]1CCCNC(=O)[C@H](Cc2ccc([N+](=O)[O-])cc2)NC(=O)[C@H](Cc2ccco2)NC(=O)[C@H](CC2CC2)NC(=O)C=CC(=O)N1` [Macrocycle A10-B1-C5-D6], the “difference in potency between cis and trans stereoisomers (Src)” value [3] was ~10 fold.

With `NC(=O)[C@@H]1CCNC(=O)[C@H](Cc2ccc([N+](=O)[O-])cc2)NC(=O)[C@H](Cc2ccco2)NC(=O)[C@H](CC2CC2)NC(=O)/C=C\C(=O)N1` [cis-A10-B1-C5-D7] the IC50 [3] was 8.9 µM.

In the case of `NC(=O)[C@@H]1CCNC(=O)[C@H](CCCNC(=O)c2cnccn2)NC(=O)[C@H](CC2CCCCC2)NC(=O)[C@H](CC2CC2)NC(=O)/C=C/C(=O)N1` [trans-A11-B8-C5-D7], the IC50 [3] is reported as > 100 µM.

In the case of `NC(=O)[C@@H]1CCNC(=O)[C@H](CCCNC(=O)c2cnccn2)NC(=O)[C@H](Cc2ccco2)NC(=O)[C@H](C/C=C/c2ccccc2)NC(=O)/C=C\C(=O)N1` [cis-A11-B1-C10-D7], the IC50 [3] is reported as 7 µM.

With `CS(=O)(=O)CC[C@@H]1NC(=O)[C@H](Cc2ccco2)NC(=O)[C@H](CC2CC2)NC(=O)C=CC(=O)N[C@H](C(N)=O)CCNC1=O` [Macrocycle A9-B1-C5-D7] the “Src kinase inhibition (in words)” value [3] was “did not inhibit Src”.

For `NCCOCCOCCNC(=O)[C@@H]1CCNC(=O)/C=C\C(=O)N[C@@H](C/C=C/c2ccccc2)C(=O)N[C@@H](CC2CCCCC2)C(=O)N[C@H](Cc2ccc(C(=O)c3ccccc3)cc2)C(=O)N1` [cis-A12-B8-C10-D3] ([Ala(E-styryl)][Cha][dBpa][Dab]-{NH(CH2CH2O)2CH2CH2NH2}; linker N-4 via Maleoyl), the IC50 [1] was 12 µM and the IC50 [2] was 25 µM.

In the case of `NC(=O)[C@@H]1CCNC(=O)[C@H](CCCNC(=O)c2cnccn2)NC(=O)[C@H](Cc2ccco2)NC(=O)[C@H](CC2CC2)NC(=O)/C=C/C(=O)N1` [trans-A11-B1-C5-D7], the IC50 [3] is reported as 12 µM.

With `NC(=O)[C@@H]1CCNC(=O)[C@H](CCCNC(=O)c2cnccn2)NC(=O)[C@H](CC2CCCCC2)NC(=O)[C@H](C/C=C/c2ccccc2)NC(=O)/C=C/C(=O)N1` [trans-A11-B8-C10-D7] the IC50 [3] was > 100 µM.

With `NC(=O)[C@@H]1CCCNC(=O)[C@H](Cc2ccc([N+](=O)[O-])cc2)NC(=O)[C@H](Cc2ccccc2)NC(=O)[C@H](CC2CC2)NC(=O)/C=C/C(=O)N1` [MC4.1] the IC50 ([4]; 5 μM ATP) was 6.3 µM, the IC50 ([4]; 250 μM ATP) was 11 µM and the “increase in Src inhibition potency relative to parent macrocycle” value [5] was 3 fold. The IC50 ([5]; full-length chicken c-Src, ATP near KM (50 μM)) was 0.08 µM, the IC50 [6, 9] was > 100 µM and the IC50 [6, 10] was > 100 µM. For the same molecule, the IC50 [6, 11] was > 100 µM, the IC50 [7, 9] was 0.6 µM and the IC50 [7, 10] was 0.8 µM. It also gave an IC50 [7, 11] of 1.8 µM, an IC50 [8, 9] of 5.2 µM and an IC50 [8, 10] of 5.5 µM. For the same molecule, the IC50 [8, 11] was 10 µM.

`C=CC[C@@H]1NC(=O)/C=C\C(=O)N[C@H](C(N)=O)CCNC(=O)[C@H](CCCNC(=O)c2cnccn2)NC(=O)[C@H](Cc2ccco2)NC1=O` [cis-A11-B1-C3-D7] showed an IC50 [3] of 10 µM.
